Entries after “also recorded” stand apart in the source; their conditions may differ.
Legend:
α-glucosidase [1] = target: T1, α-glucosidase (Saccharomyces cerevisiae, UniProt P53341); test: α-glucosidase inhibition assay
α-glucosidase [2] = target: T1, α-glucosidase; test: biochemical
α-glucosidase [3] = target: T1, α-glucosidase; details: Lineweaver–Burk plot

T1 sequence (P53341 whole entry): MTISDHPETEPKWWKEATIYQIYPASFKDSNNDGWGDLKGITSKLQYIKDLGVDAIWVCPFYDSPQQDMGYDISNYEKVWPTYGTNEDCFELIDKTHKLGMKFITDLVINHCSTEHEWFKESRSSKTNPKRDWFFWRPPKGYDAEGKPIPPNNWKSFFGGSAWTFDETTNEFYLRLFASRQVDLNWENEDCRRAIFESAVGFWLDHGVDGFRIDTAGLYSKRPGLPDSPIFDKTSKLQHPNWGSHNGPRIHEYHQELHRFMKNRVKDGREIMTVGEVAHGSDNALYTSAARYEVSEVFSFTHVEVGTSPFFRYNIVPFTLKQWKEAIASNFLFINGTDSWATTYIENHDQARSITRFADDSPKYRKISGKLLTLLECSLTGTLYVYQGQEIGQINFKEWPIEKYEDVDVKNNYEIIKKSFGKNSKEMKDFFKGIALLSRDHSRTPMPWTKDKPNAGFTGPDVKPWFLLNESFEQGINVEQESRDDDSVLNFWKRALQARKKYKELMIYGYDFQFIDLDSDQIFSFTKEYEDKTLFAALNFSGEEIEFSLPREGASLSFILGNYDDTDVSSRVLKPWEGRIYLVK

| Compound | IC50 (α-glucosidase [1]) [µM] | Ki (α-glucosidase [2]) [µM] | mode of inhibition (α-glucosidase [3]) |
| --- | --- | --- | --- |
| COc1ccc2nc3cc(Cl)ccc3c(SCc3cn(Cc4ccccc4)nn3)c2c1 [Compound 7a, 9-((1-benzyl-1H-1,2,3-triazol-4-yl)methylthio)-6-chloro-2-methoxyacridine] | 169.1 ± 0.9 | – | – |
| COc1cccc(Cn2cc(CSc3c4ccc(Cl)cc4nc4ccc(OC)cc34)nn2)c1 [Compound 7b, 9-((1-(3-methoxybenzyl)-1H-1,2,3-triazol-4-yl)methylthio)-6-chloro-2-methoxyacridine] | > 750 | – | – |
| COc1ccc(Cn2cc(CSc3c4ccc(Cl)cc4nc4ccc(OC)cc34)nn2)cc1 [Compound 7c, 9-((1-(4-methoxybenzyl)-1H-1,2,3-triazol-4-yl)methylthio)-6-chloro-2-methoxyacridine] | > 750 | – | – |
| COc1ccc2nc3cc(Cl)ccc3c(SCc3cn(Cc4ccccc4C)nn3)c2c1 [Compound 7d, 6-chloro-2-methoxy-9-(((1-(2-methylbenzyl)-1H-1,2,3-triazol-4yl)methyl)thio)acridine] | 482 ± 0.2 | – | – |
| COc1ccc2nc3cc(Cl)ccc3c(SCc3cn(Cc4cccc(C)c4)nn3)c2c1 [Compound 7e, 6-chloro-2-methoxy-9-(((1-(3-methylbenzyl)-1H-1,2,3-triazol-4-yl)methyl)thio)acridine] | > 750 | – | – |
| COc1ccc2nc3cc(Cl)ccc3c(SCc3cn(Cc4ccc(C)cc4)nn3)c2c1 [Compound 7f, 6-chloro-2-methoxy-9-(((1-(4-methylbenzyl)-1H-1,2,3-triazol-4-yl)methyl)thio) acridine] | 123.1 ± 0.8 | – | – |
| COc1ccc2nc3cc(Cl)ccc3c(SCc3cn(Cc4cccc(F)c4)nn3)c2c1 [Compound 7g, 9-((1-(3-fluorobenzyl) -1H-1,2,3-triazol-4-yl)methylthio) -6-chloro-2-methoxyacridine] | 164 ± 0.6 | – | – |
| COc1ccc2nc3cc(Cl)ccc3c(SCc3cn(Cc4ccc(F)cc4)nn3)c2c1 [Compound 7h, 9-((1-(4-fluorobenzyl)-1H-1,2,3-triazol-4-yl)methylthio)-6-chloro-2-methoxyacridine] | 98 ± 0.3 | 98 | competitive inhibitor; also recorded: competitive inhibition |
| COc1ccc2nc3cc(Cl)ccc3c(SCc3cn(Cc4ccccc4Cl)nn3)c2c1 [Compound 7i, 9-((1-(2-chlorobenzyl)-1H-1,2,3-triazol-4-yl)methylthio) -6-chloro-2-methoxyacridine] | > 750 | – | – |
| COc1ccc2nc3cc(Cl)ccc3c(SCc3cn(Cc4ccccc4Br)nn3)c2c1 [Compound 7j, 9-((1-(2-bromobenzyl)-1H-1,2,3-triazol-4-yl)methylthio)-6-chloro-2-methoxyacridine] | 302.8 ± 0.6 | – | – |
| COc1ccc2nc3cc(Cl)ccc3c(SCc3cn(Cc4cccc(Cl)c4Cl)nn3)c2c1 [Compound 7k, 9-((1-(2,3-dichlorobenzyl)-1H-1,2,3-triazol-4-yl)methylthio)-6-chloro-2-methoxyacridine] | > 750 | – | – |
| COc1ccc2nc3cc(Cl)ccc3c(SCc3cn(Cc4ccc(Cl)cc4Cl)nn3)c2c1 [Compound 7l, 9-((1-(2,4-dichlorobenzyl)-1H-1,2,3-triazol-4-yl)methylthio)-6-chloro-2-methoxyacridine] | 229.2 ± 1.3 | – | – |
| COc1ccc2nc3cc(Cl)ccc3c(SCc3cn(Cc4ccccc4[N+](=O)[O-])nn3)c2c1 [Compound 7m, 9-((1-(2-nitrobenzyl)-1H-1,2,3-triazol-4-yl)methylthio)-6-chloro-2methoxyacridine] | > 750 | – | – |
| COc1ccc2nc3cc(Cl)ccc3c(SCc3cn(Cc4ccc([N+](=O)[O-])cc4)nn3)c2c1 [Compound 7n, 9-((1-(4-nitrobenzyl)-1H-1,2,3-triazol-4-yl)methylthio) -6-chloro-2-methoxyacridine] | > 750 | – | – |

From PMC11284203 (Scientific Reports, 2024)
